Paper PMC4770311, “Discovery and Characterization of GSK2801, a Selective Chemical Probe for the Bromodomains BAZ2A and BAZ2B” (Journal of Medicinal Chemistry, 2015)

Legend:
BRD4 = system: BRD4; parameters: method as in PMID 21804994, PMID 22136404; settings: reported activity; read-out: TR-FRET assay: BRD4; cited from earlier work
BAZ2A [1] = target: T1, BAZ2A (Homo sapiens, UniProt Q9UIF9); test: AlphaScreen assay BAZ2A; assay type: binding; settings: average of three replicates ± SEM
T1 construct: Recombinant BAZ2A and BAZ2B bromodomains were expressed in; made in house; host or cells: E. coli
T1 sequence (Q9UIF9 1793-1897 limits assumed): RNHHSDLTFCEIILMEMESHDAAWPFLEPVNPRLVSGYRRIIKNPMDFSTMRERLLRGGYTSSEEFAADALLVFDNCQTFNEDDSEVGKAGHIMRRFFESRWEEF
Method: AlphaScreen: AlphaScreen was performed as described previously 10, with minor modifications from the manufacturers protocol (PerkinElmer, USA). Briefly, all reagents were diluted in the recommended buffer (50 mM HEPES, 100 mM NaCl, 0.1% BSA; pH = 7.4) supplemented with 0.05% CHAPS and allowed to equilibrate to room temperature prior to […]
Plates were sealed and incubated at room temperature for 30 min. 4 μL of streptavidin-coated donor beads (10ug/mL final) and 4 μL of nickel chelate acceptor beads (10 μg/ml final) were then added under low light conditions. Plates were foil sealed to protect from light, incubated at room temperature for 60 min and read on a PHERAstar FS plate reader (BMG Labtech, Germany) using an AlphaScreen 680 excitation/570 emission filter set.
Fragments were dissolved in ethylene glycol to overcome sensitivity of the bromodomain assay to DMSO and allow compounds to be screened at mM concentrations. IC50 […]
measurements were taken over a 12 point 1:2 serial dilution of compound. IC50s were calculated in GraphPad Prism 5 (GraphPad Software, USA). […]

BRD2 = system: BRD2; parameters: method as in PMID 21804994, PMID 22136404; settings: reported activity; read-out: TR-FRET assay: BRD2; cited from earlier work
BAZ2A [2] = target: BAZ2A (Homo sapiens, UniProt Q9UIF9); test: Chemoproteomic competition binding assay, endogenous BAZ2A; settings: up to a concentration of 50 μM; HuT78 extracts
Target sequence in this assay (Q9UIF9 whole entry): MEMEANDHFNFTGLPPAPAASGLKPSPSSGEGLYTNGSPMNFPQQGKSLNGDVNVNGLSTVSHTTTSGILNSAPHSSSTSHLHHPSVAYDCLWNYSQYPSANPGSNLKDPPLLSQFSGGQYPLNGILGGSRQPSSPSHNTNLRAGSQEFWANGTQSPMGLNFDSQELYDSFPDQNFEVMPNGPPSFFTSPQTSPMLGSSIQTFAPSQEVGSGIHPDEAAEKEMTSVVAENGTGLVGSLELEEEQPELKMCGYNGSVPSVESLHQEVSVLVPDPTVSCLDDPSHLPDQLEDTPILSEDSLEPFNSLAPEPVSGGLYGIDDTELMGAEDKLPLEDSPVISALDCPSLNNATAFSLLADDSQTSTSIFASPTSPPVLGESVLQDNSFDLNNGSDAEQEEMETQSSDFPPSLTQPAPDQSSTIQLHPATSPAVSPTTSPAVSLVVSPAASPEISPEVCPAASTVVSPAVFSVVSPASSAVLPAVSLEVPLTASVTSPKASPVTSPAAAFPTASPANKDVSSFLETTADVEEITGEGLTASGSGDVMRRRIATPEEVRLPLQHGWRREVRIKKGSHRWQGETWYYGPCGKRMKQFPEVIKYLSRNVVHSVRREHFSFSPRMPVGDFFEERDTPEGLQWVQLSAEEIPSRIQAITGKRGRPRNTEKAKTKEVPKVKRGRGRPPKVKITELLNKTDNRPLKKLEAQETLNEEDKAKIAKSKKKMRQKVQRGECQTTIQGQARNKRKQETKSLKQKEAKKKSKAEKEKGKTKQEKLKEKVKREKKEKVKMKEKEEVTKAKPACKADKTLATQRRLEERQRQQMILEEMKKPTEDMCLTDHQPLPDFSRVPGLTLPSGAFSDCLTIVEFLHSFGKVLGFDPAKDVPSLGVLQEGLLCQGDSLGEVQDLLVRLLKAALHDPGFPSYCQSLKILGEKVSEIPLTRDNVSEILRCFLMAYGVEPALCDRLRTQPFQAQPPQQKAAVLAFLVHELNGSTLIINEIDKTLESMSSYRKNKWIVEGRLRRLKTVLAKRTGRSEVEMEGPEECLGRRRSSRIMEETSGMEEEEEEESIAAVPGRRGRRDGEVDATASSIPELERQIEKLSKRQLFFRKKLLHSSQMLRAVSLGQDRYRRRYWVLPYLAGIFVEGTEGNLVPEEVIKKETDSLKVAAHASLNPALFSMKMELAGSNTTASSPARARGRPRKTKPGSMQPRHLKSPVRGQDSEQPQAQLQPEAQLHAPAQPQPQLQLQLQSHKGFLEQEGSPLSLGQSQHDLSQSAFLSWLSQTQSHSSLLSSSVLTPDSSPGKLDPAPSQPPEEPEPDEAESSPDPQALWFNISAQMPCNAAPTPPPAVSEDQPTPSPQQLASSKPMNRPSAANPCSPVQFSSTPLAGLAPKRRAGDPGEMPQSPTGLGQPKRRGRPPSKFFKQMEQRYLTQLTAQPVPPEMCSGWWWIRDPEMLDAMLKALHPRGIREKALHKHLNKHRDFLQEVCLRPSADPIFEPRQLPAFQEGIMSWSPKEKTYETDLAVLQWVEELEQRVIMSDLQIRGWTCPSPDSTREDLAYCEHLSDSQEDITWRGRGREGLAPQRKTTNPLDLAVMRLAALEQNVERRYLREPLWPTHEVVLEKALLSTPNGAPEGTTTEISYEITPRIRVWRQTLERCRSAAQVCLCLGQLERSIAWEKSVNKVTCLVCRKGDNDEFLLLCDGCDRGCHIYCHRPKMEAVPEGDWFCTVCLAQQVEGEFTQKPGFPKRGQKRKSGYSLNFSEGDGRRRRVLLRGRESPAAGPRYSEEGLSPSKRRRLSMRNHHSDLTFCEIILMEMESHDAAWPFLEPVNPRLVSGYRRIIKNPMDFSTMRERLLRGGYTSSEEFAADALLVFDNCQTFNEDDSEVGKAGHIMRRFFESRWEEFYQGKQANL

BAZ2B = BAZ2B (Homo sapiens, UniProt Q9UIF8); test: Chemoproteomic competition binding assay, endogenous BAZ2B; settings: up to a concentration of 50 μM; HuT78 extracts
Sequence of BAZ2B (Q9UIF8 whole entry): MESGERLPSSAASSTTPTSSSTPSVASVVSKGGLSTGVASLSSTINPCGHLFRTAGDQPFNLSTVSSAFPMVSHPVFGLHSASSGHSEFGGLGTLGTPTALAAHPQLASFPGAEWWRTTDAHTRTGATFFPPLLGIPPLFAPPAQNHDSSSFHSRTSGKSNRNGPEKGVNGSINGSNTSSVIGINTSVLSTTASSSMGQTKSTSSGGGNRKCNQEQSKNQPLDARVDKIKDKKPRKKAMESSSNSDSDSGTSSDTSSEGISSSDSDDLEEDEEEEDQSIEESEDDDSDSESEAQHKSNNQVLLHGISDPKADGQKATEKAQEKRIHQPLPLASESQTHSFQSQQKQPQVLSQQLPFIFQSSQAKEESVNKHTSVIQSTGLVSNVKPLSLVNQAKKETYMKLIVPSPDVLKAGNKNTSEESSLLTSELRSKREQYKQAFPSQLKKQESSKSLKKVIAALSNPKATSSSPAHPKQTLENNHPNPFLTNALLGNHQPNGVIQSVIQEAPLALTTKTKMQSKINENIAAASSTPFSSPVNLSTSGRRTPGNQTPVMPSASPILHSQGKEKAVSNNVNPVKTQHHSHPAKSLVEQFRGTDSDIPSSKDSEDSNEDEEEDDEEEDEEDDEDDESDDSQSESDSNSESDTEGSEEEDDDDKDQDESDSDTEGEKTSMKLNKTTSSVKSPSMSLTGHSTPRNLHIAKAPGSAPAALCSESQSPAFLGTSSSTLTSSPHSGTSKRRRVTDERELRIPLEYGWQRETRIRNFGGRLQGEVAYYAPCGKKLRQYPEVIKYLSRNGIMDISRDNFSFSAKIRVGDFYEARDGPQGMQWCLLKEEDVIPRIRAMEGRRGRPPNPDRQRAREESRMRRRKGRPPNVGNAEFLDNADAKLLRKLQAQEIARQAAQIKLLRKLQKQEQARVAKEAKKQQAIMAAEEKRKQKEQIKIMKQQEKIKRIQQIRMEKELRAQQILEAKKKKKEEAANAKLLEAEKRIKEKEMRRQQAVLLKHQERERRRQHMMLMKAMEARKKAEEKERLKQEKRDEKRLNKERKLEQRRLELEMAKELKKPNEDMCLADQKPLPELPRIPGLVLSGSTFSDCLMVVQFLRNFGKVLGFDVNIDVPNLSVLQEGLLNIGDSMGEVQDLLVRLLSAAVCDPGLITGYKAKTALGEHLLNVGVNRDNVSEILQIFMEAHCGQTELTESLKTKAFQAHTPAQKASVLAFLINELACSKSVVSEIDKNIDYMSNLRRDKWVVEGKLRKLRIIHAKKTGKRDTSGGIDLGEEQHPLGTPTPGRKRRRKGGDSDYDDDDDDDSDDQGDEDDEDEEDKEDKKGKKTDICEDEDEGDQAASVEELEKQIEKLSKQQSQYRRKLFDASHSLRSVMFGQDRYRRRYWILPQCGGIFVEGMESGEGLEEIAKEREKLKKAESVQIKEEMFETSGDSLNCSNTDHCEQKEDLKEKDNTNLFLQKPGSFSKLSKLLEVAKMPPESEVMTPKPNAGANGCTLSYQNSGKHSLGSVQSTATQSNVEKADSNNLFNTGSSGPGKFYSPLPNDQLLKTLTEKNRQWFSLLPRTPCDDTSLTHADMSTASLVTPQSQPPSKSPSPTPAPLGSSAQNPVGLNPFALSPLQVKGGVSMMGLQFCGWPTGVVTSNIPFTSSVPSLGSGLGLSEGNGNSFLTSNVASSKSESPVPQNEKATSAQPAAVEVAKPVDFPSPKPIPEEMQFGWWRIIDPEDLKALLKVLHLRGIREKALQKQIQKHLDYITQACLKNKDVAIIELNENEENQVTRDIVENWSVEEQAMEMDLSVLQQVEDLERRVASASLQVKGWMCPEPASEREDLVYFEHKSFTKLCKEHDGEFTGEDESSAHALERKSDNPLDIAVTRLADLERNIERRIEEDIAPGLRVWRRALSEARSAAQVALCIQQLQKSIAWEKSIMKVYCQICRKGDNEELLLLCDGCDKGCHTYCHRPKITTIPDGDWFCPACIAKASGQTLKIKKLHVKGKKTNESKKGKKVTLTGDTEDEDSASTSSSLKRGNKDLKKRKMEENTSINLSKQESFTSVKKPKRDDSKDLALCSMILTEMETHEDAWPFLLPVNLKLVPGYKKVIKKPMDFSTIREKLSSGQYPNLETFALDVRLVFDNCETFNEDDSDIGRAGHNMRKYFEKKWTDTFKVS

BRD9 [3] = target: T2, BRD9 (Homo sapiens, UniProt Q9H8M2); test: Chemoproteomic competition binding assay, endogenous BRD9; settings: HuT78 extracts; competition with affinity matrix
T2 construct: endogenous in cells; host or cells: HuT78
T2 sequence (Q9H8M2 1-597): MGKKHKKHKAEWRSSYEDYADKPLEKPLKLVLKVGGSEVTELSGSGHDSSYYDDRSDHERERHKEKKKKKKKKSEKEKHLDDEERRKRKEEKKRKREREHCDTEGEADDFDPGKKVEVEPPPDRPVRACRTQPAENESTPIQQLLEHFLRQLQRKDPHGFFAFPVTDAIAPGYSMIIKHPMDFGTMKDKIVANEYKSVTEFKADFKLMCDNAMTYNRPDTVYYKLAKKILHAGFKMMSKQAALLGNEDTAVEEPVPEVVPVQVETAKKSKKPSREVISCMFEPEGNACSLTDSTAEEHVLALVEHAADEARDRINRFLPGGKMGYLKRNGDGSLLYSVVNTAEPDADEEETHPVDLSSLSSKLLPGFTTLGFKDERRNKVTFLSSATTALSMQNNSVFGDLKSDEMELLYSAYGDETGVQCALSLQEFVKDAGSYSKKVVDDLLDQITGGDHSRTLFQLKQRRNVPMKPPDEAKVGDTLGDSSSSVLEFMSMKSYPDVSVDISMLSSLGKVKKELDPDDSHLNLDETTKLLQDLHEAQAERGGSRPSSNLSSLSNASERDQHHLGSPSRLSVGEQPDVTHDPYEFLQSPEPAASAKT

SMARCA2 and 4 = test: Chemoproteomic competition binding assay, endogenous SMARCA2 and 4; settings: HuT78 extracts; likely indirect via BRD9 in BAF complex
[4] = system: panel of biotin-labeled bromodomains; settings: two concentrations, 0.2 and 1.0 μM
Method: measurements were taken over a 12 point 1:2 serial dilution of compound. IC50s were calculated in GraphPad Prism 5 (GraphPad Software, USA).
Biolayer interference assays. BAZ2A and BAZ2B were expressed in frame with a C- […]
of a single biotin using the biotin ligase (BirA) which has been co-expressed in E. coli using the co-expression vector BL21(DE3)-R3-pRARE2-BirA. Cells were grown in the presence of 0.1 mM biotin and were lysed and purified using a similar procedure as described for the non-biotin labelled protein.
The biotin labelled BAZ2B and BAZ2A was immobilized on SuperStreptavidin BLI sensors.
BioLayer Interferometry (BLI) experiments were performed on a 16-channel ForteBio Octet […]
buffer. The reference sensors without attached bromodomain were used to subtract background binding to SuperStreptavidin sensors. Data were processed and analysed using ForteBio Analysis software.
Determination of PK profiles for GSK2801 after IP (intraperitoneal) and PO (oral) administrations to male CD-1 mice: These PK studies were performed by the DMPK […]
The IP and PO dosing solutions were prepared in 0.5%
Test system: CD-1 mice, 28-32g, male, N=18, purchased from SLAC Laboratory Animal Co.
LTD. The animals were given free access to food and water. A dose of 30 mg/kg (10 mL/kg) was used via intraperitoneal injection (N=9) and for oral dosing 30 mg/kg (10 mL/kg) via gavage (N=9). […]

BRD9 [5] = target: T3, BRD9 (Homo sapiens, UniProt Q9H8M2); test: Isothermal titration calorimetry BRD9; assay type: binding; settings: ITC
T3 construct: ITC experiments using the bromodomain of BRD9
Method: VP-ITC (MicroCal) at 15 °C.
reaction cell containing the inhibitors (15 µM). Integrated heat of the titrations after corrected
modifications from the manufacturers protocol (PerkinElmer, USA). Briefly, all reagents were
final) were then added under low light conditions. Plates were foil sealed to protect from […]

| SMILES | IC50 (BRD4) | IC50 (BAZ2A [1]) | IC50 (BRD2) | binding to endogenous BAZ2A (BAZ2A [2]) | binding to endogenous BAZ2B (BAZ2B) | pKd BRD9 (BRD9 [3]) | pKd SMARCA2 and 4 (SMARCA2 and 4) | selectivity in BLI bromodomain panel [4] | Kd (BRD9 [5]) | binding enthalpy change ΔH BRD9 (BRD9 [5]) |
| --- | --- | --- | --- | --- | --- | --- | --- | --- | --- | --- |
| CC(=O)c1cc(-c2ccccn2)c2ccccn12 [Compound 1] | 2 µM | 1.5 ± 0.06 µM | 2 µM |  |  |  |  |  |  |  |
| CCCOc1ccn2c(C(C)=O)cc(-c3cccc(OC)c3)c2c1 [Compound 23, 1-(1-(3-Methoxyphenyl)-7-propoxyindolizin-3-yl)ethanone] |  |  |  | did not show any binding | did not show any binding | 4.5 | 4.8 | inactive against BAZ2A/B and all other bromodomains except BRD9 | 1.04 µM | −8.98 (± 0.152) kcal/mol |
